Test results taken from patent US12377110B2, “Fospropofol methods and compositions” (Epalex Corporation, priority 2019, dated 2025).
Where two headings read alike, the source gives them in different places.

Columns and labels:
[1] = Study A16 Part 2: PK of a single dose of 1200 mg fospropofol disodium following a high-fat meal; assay type: in vivo, human
Procedure: Part 2 of Study A16 was a double-blind, placebo-controlled, single-close pilot study to investigate the PK, safety, and tolerability of 1200 mg of fospropofol disodium administered to healthy adult men and women following a high-fat meal.
Subjects were healthy adults (age 18-55 years inclusive, BMI 18-29.9 kg/m^2). A separate cohort of 15 subjects was randomly assigned to receive a single oral dose of either fospropofol disodium (n=12) or matching placebo (n=3) within 30 minutes (±1 minute) after the start of a standardized high-fat meal.
Subjects were admitted to the clinical unit for an overnight fast (Day −1), administered study drug on Day 1 within 30 minutes of the start a standardized high-fat meal, and remained in the clinical unit until Day 2.
Fospropofol disodium was formulated as powder in 6 HPMC capsules, each capsule containing 200 mg of fospropofol disodium (weight adjusted for water content). Placebo was administered as 6 matching capsules.

[2] = Study A16 Part 1: PK of single ascending oral doses of fospropofol disodium (200 to 2000 mg), fasted healthy adults; assay type: in vivo, human; details: for AUC / Cmax / Tmax / AUC(0-t) / AUC(0-inf) / half-life: human, plasma; for Cmax: read-out: Fospropofol Cmax; for AUC(0-t): read-out: Fospropofol AUC0-T; for AUC(0-inf): read-out: Fospropofol AUC0-∞; for half-life: read-out: Fospropofol t1/2 (converted)
Procedure: Part 1 of Study A16 was a double-blind, randomized, placebo-controlled study to investigate the safety-tolerability and PK of oral administration of single ascending doses of fospropofol disodium to healthy adult male and female volunteers.
Subjects were healthy adults (age 18-55 years inclusive, BMI 18-29.9 kg/m^2). Separate cohorts of 12 subjects each were randomized to receive fospropofol disodium at doses of 200, 400, 800, 1000, 1200, 1600, or 2000 mg (n=10 per cohort) or matching placebo (n=2 per cohort).
Subjects were admitted to the clinical unit for an overnight fast (Day −1), administered study drug on Day 1, and remained in the clinical unit until Day 2.
Fospropofol disodium was formulated as powder in an HPMC capsule, each capsule containing 200 mg of fospropofol disodium (weight adjusted for water content). Placebo was administered as an appropriate number of matching capsules.
Based on PK results from the early cohorts, sampling times were optimized beginning with Cohort 3 (800 mg) to preclose, 5, 10, 15, 20, 25, 30, 37, and 45, minutes and 1, 2, 4, 6, and 9 hours after closing.

[3] = both sexes, oral fospropofol disodium 200 mg, mean
[4] = both sexes, oral fospropofol disodium 400 mg, mean
[5] = both sexes, oral fospropofol disodium 800 mg, mean
[6] = both sexes, oral fospropofol disodium 1000 mg, mean
[7] = both sexes, oral fospropofol disodium 1200 mg, mean
[8] = both sexes, oral fospropofol disodium 1600 mg, mean
[9] = both sexes, oral fospropofol disodium 2000 mg, mean
[10] = oral fospropofol disodium 1200 mg, Fasted (Cohort 5), n = 10, mean
[11] = subjects 301-312 (800 mg cohort)

Compound: CC(C)c1cccc(C(C)C)c1OCOP(=O)(O)O [fospropofol, (2,6-diisopropylphenoxy)methyl dihydrogen phosphate]
- Effect of high-fat meal on exposure ([1]; 1200 mg within 30 minutes after the start of a high-fat meal): significant reduction in exposure
- Mean exposure to fospropofol (both Cmax and AUC) under fed conditions relative to fasting ([1]; 1200 mg, high-fat meal vs fasting): approximately 24%
- Tmax ([1]; both sexes, human, plasma, oral, 1200 mg, fed, no appreciable effect, read-out: Fospropofol Tmax (median)): 20 min
- AUC(0-inf) ([1]; both sexes, human, plasma, oral fospropofol disodium 1200 mg, Fed (Cohort 8), n = 10/12, mean, read-out: Fospropofol AUC0-∞): 1080 ng·h/mL
- half-life ([1]; both sexes, human, plasma, oral fospropofol disodium 1200 mg, Fed (Cohort 8), n = 10/12, mean, read-out: Fospropofol t1/2 (converted)): 15.6 min
- Cmax ([1]; both sexes, human, plasma, oral fospropofol disodium 1200 mg, Fed (Cohort 8), n= 12, mean): 1790 ng/mL
- AUC(0-t) ([1]; both sexes, human, plasma, oral fospropofol disodium 1200 mg, Fed (Cohort 8), n= 12, mean, read-out: Fospropofol AUC0-T): 993 ng·h/mL
- Tmax ([1]; both sexes, human, plasma, oral fospropofol disodium 1200 mg, Fed (Cohort 8), n= 12, median, read-out: Fospropofol Tmax): 19.8 min
- Fospropofol CL/F ([1]; oral fospropofol disodium 1200 mg, Fed (Cohort 8), n = 10/12, mean): 4122 L/h
- Dose proportionality of fospropofol AUC0-2h, AUC0-T, AUC0-∞, and Cmax (power model) ([2]; 200 mg to 2000 mg): close proportional
- AUC ([2]; both sexes, oral, 800 mg, subjects 301-312 (800 mg cohort), Mean, read-out: Fospropofol AUC1): 2780 ng·h/mL
- AUC ([2]; both sexes, oral, 800 mg, subjects 301-312 (800 mg cohort), Mean, read-out: Fospropofol AUC2): 3330 ng·h/mL
- AUC ([2]; both sexes, oral, 800 mg, subjects 301-312 (800 mg cohort), Mean, read-out: Fospropofol AUC4): 3440 ng·h/mL
- Cmax ([2]; both sexes, oral, 800 mg, subjects 301-312 (800 mg cohort), Mean): 6040 ng/mL
- Tmax ([2]; both sexes, oral, 800 mg, subjects 301-312 (800 mg cohort), Mean, read-out: Fospropofol Tmax): 20.4 min
- Tmax ([2]; both sexes, oral, 800 mg, subjects 301-312 (800 mg cohort), individual subjects (Subject No. in c0), read-out: Fospropofol Tmax): 30 min
- Tmax ([2]; both sexes, oral, 200 to 2000 mg cohorts, read-out: Fospropofol median Tmax (converted)): ~20 min
- Cmax ([2]; both sexes, po, 200 mg, oral fospropofol disodium 200 mg, mean): 1980 ng/mL
- Tmax ([2]; both sexes, po, 200 mg, oral fospropofol disodium 200 mg, median, read-out: Fospropofol Tmax): 19.8 min
- Cmax ([2]; both sexes, po, 400 mg, oral fospropofol disodium 400 mg, mean): 4460 ng/mL
- Tmax ([2]; both sexes, po, 400 mg, oral fospropofol disodium 400 mg, median, read-out: Fospropofol Tmax): 19.8 min
- Cmax ([2]; both sexes, po, 800 mg, oral fospropofol disodium 800 mg, mean): 6040 ng/mL
- Tmax ([2]; both sexes, po, 800 mg, oral fospropofol disodium 800 mg, median, read-out: Fospropofol Tmax): 19.8 min
- Cmax ([2]; both sexes, po, 1000 mg, oral fospropofol disodium 1000 mg, mean): 8240 ng/mL
- Tmax ([2]; both sexes, po, 1000 mg, oral fospropofol disodium 1000 mg, median, read-out: Fospropofol Tmax): 19.8 min
- Cmax ([2]; both sexes, po, 1200 mg, oral fospropofol disodium 1200 mg, Fasted (Cohort 5), n = 10, mean): 7110 ng/mL
- Tmax ([2]; both sexes, po, 1200 mg, oral fospropofol disodium 1200 mg, Fasted (Cohort 5), n = 10, median, read-out: Fospropofol Tmax): 19.8 min
- Cmax ([2]; both sexes, po, 1200 mg, oral fospropofol disodium 1200 mg, mean): 7110 ng/mL
- Tmax ([2]; both sexes, po, 1200 mg, oral fospropofol disodium 1200 mg, median, read-out: Fospropofol Tmax): 19.8 min
- Cmax ([2]; both sexes, po, 1600 mg, oral fospropofol disodium 1600 mg, mean): 10200 ng/mL
- Tmax ([2]; both sexes, po, 1600 mg, oral fospropofol disodium 1600 mg, median, read-out: Fospropofol Tmax): 19.8 min
- Cmax ([2]; both sexes, po, 2000 mg, oral fospropofol disodium 2000 mg, mean): 17100 ng/mL
- Tmax ([2]; both sexes, po, 2000 mg, oral fospropofol disodium 2000 mg, median, read-out: Fospropofol Tmax): 22.8 min
- AUC(0-t) [2, 3]: 856 ng·h/mL
- AUC(0-inf) [2, 3]: 882 ng·h/mL
- half-life [2, 3]: 12.6 min
- AUC(0-t) [2, 4]: 2200 ng·h/mL
- AUC(0-inf) [2, 4]: 2230 ng·h/mL
- half-life [2, 4]: 14.4 min
- AUC(0-t) [2, 5]: 3290 ng·h/mL
- AUC(0-inf) [2, 5]: 3360 ng·h/mL
- half-life [2, 5]: 16.2 min
- AUC(0-t) [2, 6]: 4700 ng·h/mL
- AUC(0-inf) [2, 6]: 4840 ng·h/mL
- half-life [2, 6]: 17.4 min
- AUC(0-t) [2, 7]: 4400 ng·h/mL
- AUC(0-inf) [2, 7]: 4500 ng·h/mL
- half-life [2, 7]: 20.4 min
- AUC(0-t) [2, 8]: 6090 ng·h/mL
- AUC(0-inf) [2, 8]: 6300 ng·h/mL
- half-life [2, 8]: 21 min
- AUC(0-t) [2, 9]: 10800 ng·h/mL
- AUC(0-inf) [2, 9]: 11000 ng·h/mL
- half-life [2, 9]: 22.2 min
- Fospropofol concentration relative to Cmax ([2]; by 2 hours after dosing): less than 10 % of Cmax
- Fospropofol AUC0-T/mg FOSP DiNa ([2]; dose 200 mg FOSPDiNa): 4.28 (ng · h/mL)/mg
- Fospropofol AUC0-∞/mg FOSP DiNa ([2]; dose 200 mg FOSPDiNa): 4.41 (ng · h/mL)/mg
- Fospropofol Cmax/mg FOSP DiNa ([2]; dose 200 mg FOSPDiNa): 9.89 (ng/mL)/mg
- Fospropofol AUC0-T/mg FOSP DiNa ([2]; dose 400 mg FOSPDiNa): 5.51 (ng · h/mL)/mg
- Fospropofol AUC0-∞/mg FOSP DiNa ([2]; dose 400 mg FOSPDiNa): 5.58 (ng · h/mL)/mg
- Fospropofol Cmax/mg FOSP DiNa ([2]; dose 400 mg FOSPDiNa): 11.15 (ng/mL)/mg
- Fospropofol AUC0-T/mg FOSP DiNa ([2]; dose 800 mg FOSPDiNa): 4.11 (ng · h/mL)/mg
- Fospropofol AUC0-∞/mg FOSP DiNa ([2]; dose 800 mg FOSPDiNa): 4.20 (ng · h/mL)/mg
- Fospropofol Cmax/mg FOSP DiNa ([2]; dose 800 mg FOSPDiNa): 7.55 (ng/mL)/mg
- Fospropofol AUC0-T/mg FOSP DiNa ([2]; dose 1000 mg FOSPDiNa): 4.70 (ng · h/mL)/mg
- Fospropofol AUC0-∞/mg FOSP DiNa ([2]; dose 1000 mg FOSPDiNa): 4.85 (ng · h/mL)/mg
- Fospropofol Cmax/mg FOSP DiNa ([2]; dose 1000 mg FOSPDiNa): 8.24 (ng/mL)/mg
- Fospropofol AUC0-T/mg FOSP DiNa ([2]; dose 1200 mg FOSPDiNa): 3.67 (ng · h/mL)/mg
- Fospropofol AUC0-∞/mg FOSP DiNa ([2]; dose 1200 mg FOSPDiNa): 3.75 (ng · h/mL)/mg
- Fospropofol Cmax/mg FOSP DiNa ([2]; dose 1200 mg FOSPDiNa): 5.93 (ng/mL)/mg
- Fospropofol AUC0-T/mg FOSP DiNa ([2]; dose 1600 mg FOSPDiNa): 3.81 (ng · h/mL)/mg
- Fospropofol AUC0-∞/mg FOSP DiNa ([2]; dose 1600 mg FOSPDiNa): 3.94 (ng · h/mL)/mg
- Fospropofol Cmax/mg FOSP DiNa ([2]; dose 1600 mg FOSPDiNa): 6.40 (ng/mL)/mg
- Fospropofol AUC0-T/mg FOSP DiNa ([2]; dose 2000 mg FOSPDiNa): 5.41 (ng · h/mL)/mg
- Fospropofol AUC0-∞/mg FOSP DiNa ([2]; dose 2000 mg FOSPDiNa): 5.49 (ng · h/mL)/mg
- Fospropofol Cmax/mg FOSP DiNa ([2]; dose 2000 mg FOSPDiNa): 8.54 (ng/mL)/mg
- AUC ([2]; female, oral, 800 mg, females only (800 mg cohort), Mean, read-out: Fospropofol Auc1): 3050 ng·h/mL
- AUC ([2]; female, oral, 800 mg, females only (800 mg cohort), Mean, read-out: Fospropofol Auc2): 3710 ng·h/mL
- AUC ([2]; female, oral, 800 mg, females only (800 mg cohort), Mean, read-out: Fospropofol Auc4): 3870 ng·h/mL
- Cmax ([2]; female, oral, 800 mg, females only (800 mg cohort), Mean): 6730 ng/mL
- Tmax ([2]; female, oral, 800 mg, females only (800 mg cohort), Mean, read-out: Fospropofol Tmax): 22.2 min
- AUC ([2]; female, oral, 800 mg, females only (800 mg cohort), individual subjects (Subject No. in c0), read-out: Fospropofol Auc1): 4160 ng·h/mL
- AUC ([2]; female, oral, 800 mg, females only (800 mg cohort), individual subjects (Subject No. in c0), read-out: Fospropofol Auc2): 5000 ng·h/mL
- AUC ([2]; female, oral, 800 mg, females only (800 mg cohort), individual subjects (Subject No. in c0), read-out: Fospropofol Auc4): 5160 ng·h/mL
- Tmax ([2]; female, oral, 800 mg, females only (800 mg cohort), individual subjects (Subject No. in c0), read-out: Fospropofol Tmax): 30 min
- Fospropofol Auc1 CV (%) ([2]; females only (800 mg cohort)): 23.3%
- Fospropofol Auc2 CV (%) ([2]; females only (800 mg cohort)): 23.1%
- Fospropofol Auc4 CV (%) ([2]; females only (800 mg cohort)): 23.3%
- Fospropofol Cmax CV (%) ([2]; females only (800 mg cohort)): 32.2%
- Fospropofol Tmax CV (%) ([2]; females only (800 mg cohort)): 27.3%
- Fospropofol CL/F ([2]; oral fospropofol disodium 200 mg, mean): 277 L/h
- Fospropofol CL/F ([2]; oral fospropofol disodium 400 mg, mean): 211 L/h
- Fospropofol CL/F ([2]; oral fospropofol disodium 800 mg, mean): 254 L/h
- Fospropofol CL/F ([2]; oral fospropofol disodium 1000 mg, mean): 229 L/h
- Fospropofol AUC0-T [2, 10]: 4399 ng·h/mL
- Fospropofol CL/F [2, 10]: 288 L/h
- Fospropofol CL/F ([2]; oral fospropofol disodium 1200 mg, mean): 288 L/h
- Fospropofol CL/F ([2]; oral fospropofol disodium 1600 mg, mean): 270 L/h
- Fospropofol CL/F ([2]; oral fospropofol disodium 2000 mg, mean): 204 L/h
- Fospropofol AUC1 CV (%) [2, 11]: 23.6%
- Fospropofol AUC2 CV (%) [2, 11]: 26.0%
- Fospropofol AUC4 CV (%) [2, 11]: 27.2%
- Fospropofol Cmax CV (%) [2, 11]: 30.7%
- Fospropofol Tmax CV (%) [2, 11]: 29.2%
